Laboratory results: patent US9717671B2, “Composition for improving skin, hair and coat health containing flavanones” (Nestec S.A., priority 2003, dated 2017)

Key:
[1] = tested on: Human immortalized keratinocytes (HaCaT); experiment: Cytotoxicity assay (LDH activity in supernatant as a measure for cell death); format: cell-based; details: for cell death (LDH activity): normal culture conditions (without menadione)
Description: FIG. 1: HaCat cells were incubated with 10 μM hesperetin (hp, red bars) or low 10 μM hesperetin-7-O-glucuronide (hp-7-O-gluc, yellow bars) or equal amounts of DMSO as a control (blue bars) and treated with or without menadione for additional 5 h. The supernatant was analyzed for lactate dehydrogenase (LDH) activity and results were expressed relative to cells which were lysed with Triton X-100® before analysis (100% death). Human immortalized keratinocytes (HaCaT) were incubated with 10 μM hesperetin, 10 μM hesperetin-7-O-glucuronide or equal amounts of DMSO as a negative control for 16 h and 1 h before challenge. Cells were then treated with 100 μM menadione, a xenobiotic which generates reactive oxygen species intracellularly. Non-menadione treated cells were used as a positive control. After 5 h the supernatant was analysed for lactate dehydrogenase (LDH) activity as a measure for cell death using the CytoTox 96 non-radioactive cytotoxicity assay (Promega, USA).

[2] = tested on: CD1d1 antigen; experiment: Real-time PCR of rat skin total RNA, CD1d1 expression; format: in vivo, female wistar rats; details: vs control diet
Description: (§1) FIG. 4: Real-time PCR analysis of total RNA isolated from rat skin fed either a control diet (ctrl) or a hesperidin-supplemented diet (0.1% Hp, 0.5% Hp) for the expression of CD1d1 and interleukin 6 (IL-6). Samples were analyzed in 3 pools containing 4 rats each and obtained Ct values are shown for CD1d1 in A and IL-6 in B. Dots represent averages of technical triplicates, bars the total average per group. Fold changes in relative expression of the supplementation compared to control diet and relative to a housekeeping gene are shown in C. The control diet was set to 1 fold and is represented by a thick line. Confident intervals were calculated using ANOVA.
(§2) Rat skin biopsies were obtained from the Heperidin growth trial (FIG. 2). Dorsal skin was excised, one part was fixed in 4% PFA and paraffin embedded, one part was cryo-preserved and another part was immediately frozen in liquid nitrogen.
(§3) Skin samples were homogenized with Lysing Matrix D, total RNAs were extracted using the ToTally RNA™ Kit following the manufacturer's instructions. RNA was eluted with 40 μl of nuclease-free water.
(§4) The quantification was performed using the Ribogreen® RNA quantitation Kit on 96-well plates and a fluorescence microplate reader according to the manual. Measurements were done in duplicate. The samples were diluted either 1:680 or 1:3400 in a final volume of 100 μl 1×TE buffer. […]
(§5) Data were analysed by ANOVA. […]

[3] = tested on: interleukin 6 (IL-6); experiment: Real-time PCR of rat skin total RNA, IL-6 expression; format: in vivo, female wistar rats; details: rats fed 0.5% hesperidin diet, vs control diet
Description: as §1, §2, §3, §4, §5

[4] = tested on: rat skin; experiment: Histopathological analysis of rat skin, hesperidin growth trial; format: in vivo, female wistar rats; details: rats fed hesperidin diet (0.1% and 0.5%) from weaning to 12 weeks of age, vs control diet
Excerpt: FIG. 3: Histopathological analysis of rat skin supplemented with hesperidin. 6 μm paraffin sections were de-waxed, stained with hematoxylin/eosin and mounted. Representative images in two magnifications are shown for the control group (A and D) and the groups supplemented with hesperidin (0.1%: B and E, 0.5% C and F).
as §2
Rat skin was dissected and fixed for 4 days in 4% paraformaldehyde in PBS (pH 7.4) at 4° C. and embedded in paraffin using a Leica Microsystem embedding apparatus. The tissues were washed in PBS and saline (0.9% NaCl) and dehydrated by passing them through saline solutions with increasing ethanol concentrations: 30 min each in 30%, 50%, 70%, 90%, 99%, 100% and an additional hour in 100%. Tissue samples were incubated twice for 30 min in xylene, followed by 2-3 h and 3 h incubations in paraffin wax at 60° C. 6 μm thick paraffin sections were cut using a Leica Microtome. Sections were de-waxed 5 min in xylene and dehydrated by passing them through a series of solutions with decreasing ethanol concentrations: 1 min each in 100%, 96%, 90%, 80%, 70%, and 50% ethanol. Finally, they were transferred into destilled water and stained. […]

Structure (SMILES)	potency of protective effect compared to the aglycone ([1]; 10 μM each, FIG. 1)	protective effect against cell death (LDH activity) ([1]; 10 μM, challenged with 100 μM menadione for 5 h, vs DMSO control)	cell death (LDH activity) ([1]; 10 μM, vs DMSO control)	CD1d1 mRNA levels in skin ([2]; rats fed 0.1% hesperidin diet)	CD1d1 mRNA levels in skin ([2]; rats fed 0.5% hesperidin diet)	IL-6 mRNA levels in skin [3]	number of inflammatory cells in skin (histopathology) [4]
COc1ccc([C@@H]2CC(=O)c3c(O)cc(O[C@@H]4O[C@H](C(=O)O)[C@@H](O)[C@H](O)[C@H]4O)cc3O2)cc1O [hesperetin-7-O-glucuronide]	more potent compared to hp	even more pronounced	reducing cell death	–	–	–	–
COc1ccc([C@@H]2CC(=O)c3c(O)cc(O)cc3O2)cc1O [hesperetin]	–	–	reducing cell death	–	–	–	–
COc1ccc([C@@H]2CC(=O)c3c(O)cc(O[C@@H]4O[C@H](CO[C@@H]5O[C@@H](C)[C@H](O)[C@@H](O)[C@H]5O)[C@@H](O)[C@H](O)[C@H]4O)cc3O2)cc1O [hesperidin]	–	–	–	significantly decreased	significantly decreased	significantly reduced	reduced number of inflammatory cells
